The source of these data is patent US12390435B2, “Electrophiles and electrophile pro-drugs as RAD51 inhibitors” (University of Pittsburgh—Of the Commonwealth System of …, priority 2018, dated 2025).

Holding throughout (assay type): cell-based
Experiment [1] relates to MCF-10A cells. Put plainly: GSH and GSSG LC-MS/MS. As to conditions: 5 μM, 0 to 12 hr. On the procedure: (§1) MCF-10A, MDA-MB-231, and MDA-MB-468 cells were seeded in 24-well plates at a density of 3×10^5 cells/well. […] At each time point, cell media was aspirated and washed 2 times with sterile PBS. Cells were then incubated with PBS containing 25 mM N-ethylmaleimide (NEM) for 15 min at 37° C. Derivatizing solution (50 μL of 15% MeOH, 40 mM HEPES, 50 mM NaCl, 1 mM EDTA, 2 μM [^13C2^15N]-GSH, 2 μM [^13C4^15N2]-GSSG, and 25 mM NEM) was added to each well and incubated for 15 min at room temperature. Next, 50 μL, of 10% (w/v) sulfosalicylic acid solution was immediately added to each well to stabilize GSH and GSSG. Supernatant was collected by centrifugation at 15,000 RPM for 10 min at 4° C. Samples were diluted 1:5 in 5% sulfosalicylic acid and 20 μL, was injected for HPLC-MS/MS analysis. Cell numbers at time 0 hr were quantitated by Hoechst 33258 DNA stain assay and used to normalized GSH or GSSG levels expressed as nmol/cells (×10^6).
(§2) Samples were applied to the column at 30% B and eluted with a linear increase in solvent B (30-100% in 9.7 min). The column was washed at 100% B for 3 min before returning to initial conditions for equilibration (2 min). […] Sample [GSH] and [GSSG] were determined from analyte:I.S. area ratios, and intracellular GSH and GSSG were normalized to cell number (10^6), with results expressed as nmol GSH or GSSG per 10^6 cells.

Experiment [2] concerns MDA-MB-231 and MDA-MB-468 cells. Put plainly: GSH and GSSG LC-MS/MS. As to conditions: 5 μM, 0 to 12 hr. On the procedure:
as §1, §2

Experiment [3] relates to MCF-10A cells. Put plainly: RAD51 foci and γH2AX immunofluorescence after 5 Gy IR. On the procedure: FIGS. 1A-1K. […] FIG. 1A. […] FIG. 1C. […] EC50 values indicate average+SEM, n=3. FIGS. 1D-1F. […] FIG. 1G. […] FIGS. 1H-1I. […] Merged samples include DAPI stained nuclei (blue). […] The average percentages of cells with 5 or more foci from confocal z-stacked images are indicated from 0 or 5 Gy samples+SEM. FIG. 1J. […] Rad51 foci were counted and γH2AX intensities were assessed by ImageJ in 5Gy irradiated cells (histograms), that were analyzed by immunofluorescence (IF). FIG. 1K, upper part. […] FIG. 1K, lower part. Combination index (CI) was calculated by the Chou-Talalay method. CI<1 is synergistic. Data represent the mean from three independent experiments.
To analyze RAD51 foci formation, 10,000 cells were plated to CultureWell 16-well chambered cover glass (MIDSCI) coated with poly-L-lysine (Sigma) and incubated overnight in 5% FBS media. […] Cells were fixed with 10% formalin for 20 min at 4° C. and immunostained with RAD51 (Santa Cruz) or γH2AX (EMD Biosciences) antibodies. Z-stack images were acquired using a Nikon AIR confocal microscope with 60× oil objective and acquisition performed using NIS elements software. Quantification of z-stacks and foci were completed using ImageJ software.

Take `CCCCCCCCC(=CCCCCCCCC(=O)O)[N+](=O)[O-]` [NO2-OA, 10-nitro-octadec-9-enoic acid]: the “GSH:GSSG ratio after treatment” value is given as “maintained the GSH:GSSG ratio over the first 6 hr” with MCF-10A cells [1] and “rapidly decreased” in experiment [2]. Besides, the “RAD51 foci / γH2AX in irradiated benign cells” value in the experiment with MCF-10A cells [3] is “no effect”.
